Patent publication US20200289495A1, “METHODS OF INHIBITING ENDOTHELIN B RECEPTOR EXPRESSING TUMOR METASTASES” (ENB Therapeutics, Inc., priority 2020, published 2020)
“Also recorded” adds a separate entry of the source.

What was measured:
[1] = Body weight of athymic nude mice under intranasal BQ788; format: in vivo
Experimental: FIG. 9. ETAR antagonist and Niacinamide mitigate weight loss from BQ788. Six week old athymic nude mice were administered the ETBR antagonist BQ788 intranasally in 20% DMSO at the indicated ascending doses over a period of 42 days. One group was additionally administered the ETAR antagonist Macitentan orally at a dose of 5 mg/kg daily. The drinking water of these mice was supplemented with the B vitamin niacinamide at a concentration of 0.3 mg/mL. […] Co-administration of the ETAR antagonist Macitentan with niacinamide supplementation mitigated this weight loss. […] Co-administration of ETAR antagonists and niacinamide with ETBR antagonists mitigated the adverse effects of ETBR antagonists when administered for therapeutic purposes.
ETAR antagonist and Niacinamide mitigate weight loss from B0788 (FIG. 9). Six week old athymic nude mice (n=3 per group) were administered the ETBR antagonist BQ788 intranasally in 20% DMSO at the indicated ascending doses over a period of 42 days. One group was additionally administered the ETAR antagonist Macitentan orally at a dose of 5 mg/kg daily. The drinking water of these mice was supplemented with the B vitamin niacinamide at a concentration of 0.3 mg/mL. […] Co-administration of the ETAR antagonist Macitentan with niacinamide supplementation mitigated this weight loss. […]

[2] = test system: SKMEL28 human melanoma cells; test: SKMEL28 human melanoma xenograft growth and lung metastasis in mice; format: in vivo
Experimental: FIGS. 4A and 4B. BQ788 inhibits melanoma growth and metastasis.
B0788 inhibits melanoma growth and metastasis (FIGS. 4A and 4B). […] Mice were implanted with 1×10^6 SKMEL28 human melanoma cells. Tumors were established for 10 days until palpable then 120 ng ([…]) BQ788 dissolved in DMSO was injected IP 3×per week×6 weeks. Mice were then sacrificed and lungs harvested and tumors weighed. A 75% reduction in tumor weight was observed.

[3] = test system: melanoma cell lines overexpressing ETBR; test: Mouse melanoma brain metastasis model (xenografts of ETBR-overexpressing melanoma cell lines); format: in vivo, mice; conditions: 60 mg/kg/day
Experimental: FIGS. 5A, 5B, 5C, 5D, and 5E. ETBR antagonist inhibits melanoma brain metastasis in mice. […] In this study, lentiviral vectors were used to overexpress ETBR in melanoma cell lines, which were in turn used to implant xenografts in mice.
A192621 inhibits melanoma brain metastasis in mice (FIGS. 5A, 5B, 5C, 5D, and 5E). […] A192621 was administered at a dose of 60 mg/kg/day using a mouse melanoma model. […] In this study, lentiviral vectors were used to overexpress ETBR in melanoma cell lines, which were in turn used to implant xenografts in mice. […]

[4] = test system: A375 human melanoma cells; test: A375 subcutaneous melanoma xenograft in Nu/J nude mice; format: in vivo; conditions: Dabrafenib 100 mg/Kg PO daily, alone or + BQ788 600 ng IP TIW; day 11, p<0.05
Experimental: FIG. 7. BQ788 synergizes with Dabrafenib in vivo. A375 human melanoma cells were implanted subcutaneously into the rear flank of Nu/J nude mice and allowed to grow to 150 mm3-200 mm3 prior to randomization and initiation of treatment. The mice received the following treatments: (1) vehicle (n=8), (2) Dabrafenib 100 mg/Kg PO daily (n=5), and (3) Dabrafenib+BQ788 600 ng IP TIW (n=5).
B0788 synergizes with a bRAF inhibitor in vivo (FIG. 7). A375 human melanoma cells (3×10^6) were implanted subcutaneously into the rear flank of Nu/J nude mice and allowed to grow to 150 mm3-200 mm3 prior to randomization and initiation of treatment. The treatment groups were as follows: (1) vehicle (n=8), Dabrafenib 100 mg/Kg PO daily (n=5), (2) Dabrafenib+BQ788 600 ng IP 3×per week (n=5).

SMILES: CCCC[C@@H](NC(=O)[C@@H](Cc1cn(C(=O)OC)c2ccccc12)NC(=O)[C@H](CC(C)(C)C)NC(=O)N1[C@H](C)CCC[C@@H]1C)C(=O)O [BQ788]
- average weight loss relative to baseline body weight ([1]; BQ788 intranasally in 20% DMSO, ascending doses over 42 days, end of study): 5%
- body weight / thriving ([1]; BQ788 intranasally over 42 days, alone or with Macitentan 5 mg/kg daily orally and niacinamide 0.3 mg/mL in drinking water): failed to thrive
- clearance of lung metastases ([2]; 120 ng (˜60 ug/kg) BQ788 in DMSO IP 3× per week × 6 weeks, lungs vs control mice): > 95%
- apoptosis in melanoma tumor cells ([2]; FIGS. 4A and 4B): induces apoptosis

SMILES: CCCOc1ccc([C@H]2[C@H](C(=O)O)[C@@H](c3ccc4c(c3)OCO4)CN2CC(=O)Nc2c(CC)cccc2CC)cc1 [A192621, (2R,3R,4S)-4-(1,3-benzodioxol-5-yl)-1-[2-(2,6-diethylanilino)-2-oxoethyl]-2-(4-propoxyphenyl)pyrrolidine-3-carboxylic acid]
- CNS melanoma tumors [3]: shrinks CNS melanoma tumors
- brain melanoma metastases [3]: shrinks brain melanoma metastases
- survival [3]: increases survival

SMILES: CC(C)(C)c1nc(-c2cccc(NS(=O)(=O)c3c(F)cccc3F)c2F)c(-c2ccnc(N)n2)s1 [Dabrafenib]
- tumor growth [4]: retarded the growth of tumors; also recorded: retarded tumor growth
